# Data published in patent publication US10383865B2, “Pharmaceutical combination composition comprising complex formulations of Ivacaftor and Lumacaftor and their salts and derivatives, process for their preparation thereof and pharmaceutical compositions containing them” (Druggability Technologies IP Holdco Limited, priority 2016, dated 2019).
# Where “and” joins values, the source holds several entries; their conditions need not be identical. Equal entries are not always repeated. Where two headings read alike, the source gives them in different places.
# Assays:
# [1] = Redispersibility / DLS particle size of ball milled formulations; type: physicochemical; details: after ball milling and lyophilization
# Experimental: Ivacaftor was ball milled in the presence of the excipients used for the preparation of solid dispersion. Crystalline Lumacaftor was ball milled in the absence of complexation agent (Luviscol VA64) and pharmaceutically acceptable excipient (SDS) and in the presence of them. Ball milling parameters were the following: • Speed: 500 rpm • Milling time: 1 hour • Number of the balls: 25 pcs with 10 mm diameter • Milling vessel's material: […] • Quantity of the milled samples: 100 mg API equivalent mass in 12 mL Milli-Q water
# After the milling, the vessel was washed out with 5 mL Milli-Q water. The products were frozen on salted ice and then it was lyophilized using a freeze-drier equipped with −110° C. ice condenser, with a vacuum pump. The material and in-vitro properties of the resulted formulations were compared to the complex Lumacaftor and Ivacaftor formulations.
# Particle size of the formulations was measured by DLS technique in reconstituted dispersion/solution.
# CFTR protein = CFTR protein (Homo sapiens, UniProt P13569); details: major human metabolites of Ivacaftor; cited from earlier work
# [2] = cited from earlier work; for share of the total dose eliminated as this metabolite: oral administration of Ivacaftor
# [3] = system: plasma proteins, primarily albumin; details: cited from earlier work
# [4] = cited from earlier work; for median (range) tmax: multiple oral dose of Ivacaftor in combination with Lumacaftor, fed state; for exposure with fat-containing foods relative to fasting state: single dose of Lumacaftor/Ivacaftor
# [5] = cited from earlier work
# [6] = system: colorectal adenocarcinoma (Caco-2) cell system; details: cited from earlier work
# [7] = cited from earlier work; remark: listed apart in the source
# [8] = Gastro-intestinal tract simulated dissolution test (fasted/FaSSIF and fed/FeSSIF); type: physicochemical; details: for increase of Ivacaftor dissolution / apparent solubility in FeSSIF condition: FeSSIF vs FaSSIF
# Experimental: Gastro-intestinal tract simulated drug dissolution tests were performed by dispersing the blended pharmaceutical combination composition described above in purified water. The dispersion contained 1 mg/mL Lumacaftor and 0.625 mg/mL Ivacaftor (identical mixture to ORKAMBI®). After 30 minutes holding time, simulated gastric fluid (SGF V2) was added to dispersion in order to set-up the pH to 1.6 (fasted state simulation) or FeSSIF buffer to increase the pH to 5.8 (fed state simulation). After 60 minutes holding time, the pH of the fasted state simulated dispersion was set-up to pH=6.5 adding maleic acid solution. FaSSIF solution was also added to the dispersion to ensure the fasted condition in the intestine simulation. In case of fed state simulation FeSSIF solution was added to the dispersion.
# The dissolved amount of Lumacaftor and Ivacaftor from the blended pharmaceutical combination composition was measured by RP-HPLC after filtration with 0.1 μm pore size filter at different time points. Dissolution of Ivacaftor and Lumacaftor from the blended and granulated complex formulation was instantaneous, within 5 minutes more than 85% of the Ivacaftor and Lumacaftor dissolved from the pharmaceutical composition of present invention both in fasted and fed state simulated condition. (FIG. 3).
# CYP3A = details: in-vitro and clinical studies; cited from earlier work
# [9] = Comparative apparent solubility test (100 nm filtration, UV-VIS or RP-HPLC); type: physicochemical; details: ultrapurified water, thermodynamic from solid, FIG. 17, read-out: comparative apparent solubility of Ivacaftor formulations
# Experimental: The apparent solubility was measured by UV-VIS spectroscopy or RP-HPLC at room temperature. The samples were dispersed in ultrapurified water in 1-20 mg/mL active ingredient equivalent concentration range. The resulting solutions were filtered by 100 nm disposable syringe filter. The active ingredient content in the filtrate was measured by UV-Vis spectrophotometry or RP-HPLC and the apparent solubility was calculated. The filtrate may contain particles which could not be filtrated out using 100 nm pore size filter.
# [10] = single 150 mg oral dose, healthy volunteers, fed state
# CFTR protein, sequence (P13569 whole entry): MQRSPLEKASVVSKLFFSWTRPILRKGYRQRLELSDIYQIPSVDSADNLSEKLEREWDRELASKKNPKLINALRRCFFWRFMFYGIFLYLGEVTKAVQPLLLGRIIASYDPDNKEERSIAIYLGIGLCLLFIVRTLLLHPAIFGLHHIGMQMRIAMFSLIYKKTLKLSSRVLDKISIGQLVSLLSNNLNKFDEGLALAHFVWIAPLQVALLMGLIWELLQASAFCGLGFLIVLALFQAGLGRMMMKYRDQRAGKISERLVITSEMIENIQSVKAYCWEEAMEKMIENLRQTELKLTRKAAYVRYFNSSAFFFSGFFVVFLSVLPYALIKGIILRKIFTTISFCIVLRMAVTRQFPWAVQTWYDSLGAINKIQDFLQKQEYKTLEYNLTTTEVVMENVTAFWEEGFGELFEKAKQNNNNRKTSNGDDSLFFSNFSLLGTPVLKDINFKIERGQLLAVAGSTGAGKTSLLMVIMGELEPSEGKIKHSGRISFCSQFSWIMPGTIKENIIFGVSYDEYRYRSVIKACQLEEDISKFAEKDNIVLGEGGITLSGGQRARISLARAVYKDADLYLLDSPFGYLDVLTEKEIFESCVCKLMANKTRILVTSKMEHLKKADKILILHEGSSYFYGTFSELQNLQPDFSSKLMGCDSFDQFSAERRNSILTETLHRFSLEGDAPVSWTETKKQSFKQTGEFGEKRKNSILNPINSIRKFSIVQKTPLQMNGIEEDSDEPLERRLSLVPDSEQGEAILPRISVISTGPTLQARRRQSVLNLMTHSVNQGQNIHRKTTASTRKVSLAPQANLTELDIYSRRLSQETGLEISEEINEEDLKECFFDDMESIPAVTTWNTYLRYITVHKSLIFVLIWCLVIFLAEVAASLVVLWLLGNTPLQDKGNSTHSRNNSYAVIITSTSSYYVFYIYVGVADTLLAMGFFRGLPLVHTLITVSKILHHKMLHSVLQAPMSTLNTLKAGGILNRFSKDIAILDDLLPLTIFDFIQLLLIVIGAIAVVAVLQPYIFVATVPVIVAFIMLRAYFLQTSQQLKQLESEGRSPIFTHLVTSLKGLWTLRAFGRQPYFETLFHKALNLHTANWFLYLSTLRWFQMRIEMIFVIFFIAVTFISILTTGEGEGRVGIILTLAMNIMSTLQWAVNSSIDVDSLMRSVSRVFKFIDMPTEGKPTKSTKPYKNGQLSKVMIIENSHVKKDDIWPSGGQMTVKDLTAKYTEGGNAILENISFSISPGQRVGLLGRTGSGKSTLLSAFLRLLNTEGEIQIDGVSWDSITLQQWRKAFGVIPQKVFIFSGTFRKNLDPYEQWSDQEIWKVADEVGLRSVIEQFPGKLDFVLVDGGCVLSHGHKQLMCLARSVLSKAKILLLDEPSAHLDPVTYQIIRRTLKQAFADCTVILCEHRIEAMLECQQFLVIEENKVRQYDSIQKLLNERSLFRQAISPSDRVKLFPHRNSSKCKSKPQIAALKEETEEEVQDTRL
structure (smiles),measurement,setting,value
Cc1ccc(NC(=O)C2(c3ccc4c(c3)OC(F)(F)O4)CC2)nc1-c1cccc(C(=O)O)c1 [ball milled crystalline Lumacaftor],redispersibility in purified water,[1],hardly redispersible
CC(C)(C)c1cc(C(C)(C)C(=O)O)c(O)cc1NC(=O)c1c[nH]c2ccccc2c1=O [M6],potency relative to Ivacaftor,CFTR protein,less than one-fiftieth
same,share of the total dose eliminated as this metabolite,[2],43%
CC(C)(C)c1cc(C(C)(C)CO)c(O)cc1NC(=O)c1c[nH]c2ccccc2c1=O [M1],potency relative to Ivacaftor,CFTR protein,approximately one-sixth
same,share of the total dose eliminated as this metabolite,[2],22%
Cc1ccc(NC(=O)C2(c3ccc4c(c3)OC(F)(F)O4)CC2)nc1-c1cccc(C(=O)O)c1 [Lumacaftor],bound to plasma proteins,[3],approximately 99%
same,median (range) tmax,[4],approximately 4.0 hours
same,exposure with fat-containing foods relative to fasting state,[4],approximately 2 times
same,"apparent volume of distribution, mean (±SD)","[5]; 200 mg every 24 hours for 28 days, CF patients, fed state",86.0 (69.8) L
same,total radioactivity recovered in the urine,[5]; Lumacaftor and its metabolites,8.6%
same,median (range) time of the maximum concentration (tmax),[5]; fed state,"approximately 4.0 (2.0, 9.0) hours"
same,increase of exposure when given with fat containing food,[5]; fed vs fasted,1.6-to 2.0 fold
same,excreted unchanged in the feces,[5]; humans,51%
same,main metabolic route,[5]; in-vitro and in vivo data,mainly metabolized via oxidation and glucuronidation
same,recovered in urine as unchanged parent,[5]; of total radioactivity,0.18%
same,half-life,[5]; patients with CF,approximately 26 hours
same,permeability in Caco-2 cell system,[6],high permeability
same,solubility,[7]; water and buffer solutions of pH 1.0 to pH 8.0,practically insoluble
Cc1ccc(NC(=O)C2(c3ccc4c(c3)OC(F)(F)O4)CC2)nc1-c1cccc(C(=O)O)c1 [crystalline Lumacaftor],apparent solubility of Lumacaftor,[8]; both in FaSSIF and FeSSIF media,below 10%
"CC(C)(C)c1cc(C(C)(C)C)c(NC(=O)c2c[nH]c3ccccc3c2=O)cc1O [Ivacaftor, N-(2,4-di-tert-butyl-5-hydroxyphenyl)-1,4-dihydro-4oxoquinoline-3-carboxamide]",median (range) tmax,[4],approximately 4.0 hours
same,exposure with fat-containing foods relative to fasting state,[4],approximately 3 times
same,solubility in water,[7]; water,< 0.05 microgram/mL
same,main metabolic route,CYP3A,primarily metabolized by CYP3A
same,"apparent volume of distribution, mean (±SD)","[2]; 150 mg every 12 hours for 7 days, healthy volunteers, fed state",353 (122) L
same,accumulation ratio,[2]; every 12-hour dosing,2.2 to 2.9
same,time to steady-state plasma concentrations,[2]; every 12-hour dosing,3 to 5 days
same,median (range) tmax,[2]; fed state,approximately 4.0 (3.0; 6.0) hours
same,increase of exposure when given with food containing fat (food effect),"[2]; humans, fed vs fasted",2-to 4 fold and 2-4 fold
same,fraction of dose eliminated in the feces after metabolic conversion,[2]; oral administration,87.8%
same,urinary excretion as unchanged parent,[2]; oral administration,negligible
same,"AUC, mean (±SD)",[2]; [10],"10,600 (5260) ng*hr/mL"
same,"Cmax, mean (±SD)",[2]; [10],768 (233) ng/mL
same,time of peak plasma concentrations (tmax),[2]; [10],approximately 4 hours
same,apparent terminal half-life,[2]; single dose,approximately 12 hours
CC(C)(C)c1cc(C(C)(C)C)c(NC(=O)c2c[nH]c3ccccc3c2=O)cc1O [crystalline Ivacaftor],increase of Ivacaftor dissolution / apparent solubility in FeSSIF condition,[8],5 fold
same,solubility,[9],< 100 µg/mL
CC(C)(C)c1cc(C(C)(C)C)c(NC(=O)c2c[nH]c3ccccc3c2=O)cc1O [ball milled crystalline Ivacaftor],increase of Ivacaftor dissolution / apparent solubility in FeSSIF condition,[8],3 fold
